Laboratory results as given in patent publication US20090291942A1, “IMIDAZO PYRIDINE DERIVATIVES” (priority 2008, published 2009).
Where a name gives a salt, the structure may show the parent alone.

Each compound was assayed against T1, human GPR4 (Homo sapiens, UniProt P46093) (assay: Cell-based assay for human GPR4 activity (pH-induced cAMP formation, HTRF)). Conditions: HeLa cells stably expressing human GPR4, pH-induced cAMP formation.
T1 construct: expressed in transfected cells
Outline: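 HeLa cells stably expressing human GPR4, pre-incubated 15 min at room temperature with compound in pH 8 buffer containing 2 mM IBMX. Buffer B added to set the final stimulation pH, then a further 15 min at room temperature; cAMP read by HTRF.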

T1 sequence (P46093 whole entry): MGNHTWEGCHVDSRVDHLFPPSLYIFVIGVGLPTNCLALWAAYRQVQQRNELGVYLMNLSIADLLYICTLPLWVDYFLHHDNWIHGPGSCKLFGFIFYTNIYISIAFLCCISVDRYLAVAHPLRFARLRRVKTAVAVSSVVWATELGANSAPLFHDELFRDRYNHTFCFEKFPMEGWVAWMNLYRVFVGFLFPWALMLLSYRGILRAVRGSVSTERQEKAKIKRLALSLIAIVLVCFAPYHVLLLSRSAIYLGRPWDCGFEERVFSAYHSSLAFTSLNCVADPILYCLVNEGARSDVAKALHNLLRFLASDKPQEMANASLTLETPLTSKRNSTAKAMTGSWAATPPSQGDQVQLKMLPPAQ

Row | Structure (SMILES) | IC50
1 | CCc1nc2c(C)cc(C)nc2n1Cc1ccc(/C=C/CN2CCN(C(C)C)C(CC)C2)cc1 (stereo not drawn) [Example 72, 2-Ethyl-3-{4-[(E)-3-(3-ethyl-4-isopropyl-piperazin-1-yl)-propenyl]-benzyl}-5,7-dimethyl-3H-imidazo[4,5-b]pyridine dihydrochloride] | 452 nM
2 | CCc1nc2c(C)cc(C)nc2n1Cc1ccc(/C=C/CN2C[C@H]3C[C@@H]2CN3CC(C)C)cc1 [Example 75, 2-Ethyl-3-{4-[(E)-3-((1R,4R)-5-isobutyl-2,5-diaza-bicyclo[2.2.1]hept-2-yl)-propenyl]-benzyl}-5,7-dimethyl-3H-imidazo[4,5-b]pyridine dihydrochloride] | 146 nM
3 | CCc1nc2c(C)cc(C)nc2n1Cc1ccc(C#CCN2CCCC2)cc1 [Example 3, 2-Ethyl-5,7-dimethyl-3-[4-(3-pyrrolidin-1-yl-prop-1-ynyl)-benzyl]-3H-imidazo[4,5-b]pyridine] | 584 nM
4 | CCc1nc2c(C)cc(C)nc2n1Cc1ccc(/C=C/CN2CCC(N3CCOCC3)CC2)cc1 [Example 34, 2-Ethyl-5,7-dimethyl-3-{4-[(E)-3-(4-morpholin-4-yl-piperidin-1-yl)-propenyl]-benzyl}-3H-imidazo[4,5-b]pyridine dihydrochloride] | 182 nM
5 | CCc1nc2c(C)cc(C)nc2n1Cc1ccc(/C=C/CN2CCN(CCCOC)CC2)cc1 [Example 64, 2-Ethyl-3-(4-{(E)-3-[4-(3-methoxy-propyl)-piperazin-1-yl]-propenyl}-benzyl)-5,7-dimethyl-3H-imidazo[4,5-b]pyridine dihydrochloride] | 367 nM
6 | CCc1nc2c(C)cc(C)nc2n1Cc1ccc(/C=C/CN2CCN(CCN(C)C)CC2)cc1 [Example 58, [2-(4-{(E)-3-[4-(2-Ethyl-5,7-dimethyl-imidazo[4,5-b]pyridin-3-ylmethyl)-phenyl]-allyl}-piperazin-1-yl)-ethyl]-dimethyl-amine trihydrochloride] | 255 nM
7 | CCc1nc2c(C)cc(C)nc2n1Cc1ccc(/C=C/CCN2CCC(N3CCCCC3)CC2)cc1 [Example 105, 1′-{(E)-4-[4-(2-Ethyl-5,7-dimethyl-imidazo[4,5-b]pyridin-3-ylmethyl)-phenyl]-but-3-enyl}-[1,4′]bipiperidine] | 115 nM
8 | CCCN1CCN(C/C=C/c2ccc(Cn3c(CC)nc4c(C)cc(C)nc43)cc2)CC1 [Example 45, 2-Ethyl-5,7-dimethyl-3-{4-[(E)-3-(4-propyl-piperazin-1-yl)-propenyl]-benzyl}-3H-imidazo[4,5-b]pyridine] | 46 nM
9 | CCc1nc2c(C)cc(C)nc2n1Cc1ccc(/C=C/CN2CCC(O)(CN3CCOCC3)CC2)cc1 [Example 39, 1-{(E)-3-[4-(2-Ethyl-5,7-dimethyl-imidazo[4,5-b]pyridin-3-ylmethyl)-phenyl]-allyl}-4-morpholin-4-ylmethyl-piperidin-4-ol] | 280 nM
10 | CCc1nc2c(C)cc(C)nc2n1Cc1ccc(/C=C/C(=O)N2CCC(N(CC)CC)CC2)cc1 [Example 96, (E)-1-(4-Diethylamino-piperidin-1-yl)-3-[4-(2-ethyl-5,7-dimethyl-imidazo[4,5-b]pyridin-3-ylmethyl)-phenyl]-propenone] | 994 nM
11 | CCc1nc2c(C)cc(C)nc2n1Cc1ccc(CCN2CCC(N3CCCCC3)CC2)cc1 [Example 5, 1′-{2-[4-(2-Ethyl-5,7-dimethyl-imidazo[4,5-b]pyridin-3-ylmethyl)-phenyl]-ethyl}-[1,4′]bipiperidinyl] | 227 nM
12 | CCc1nc2c(C)cc(C)nc2n1Cc1ccc(CCCN2C[C@H]3C[C@@H]2CN3CC)cc1 [Example 26, 2-Ethyl-3-{4-[3-((1R,4R)-5-ethyl-2,5-diaza-bicyclo[2.2.1]hept-2-yl)-propyl]-benzyl}-5,7-dimethyl-3H-imidazo[4,5-b]pyridine] | 877 nM
13 | CCc1nc2c(C)cc(C)nc2n1Cc1ccc(/C=C/CCN2CCN(C(C)(C)C)CC2)cc1 [Example 104, 3-{4-[(E)-4-(4-tert-Butyl-piperazin-1-yl)-but-1-enyl]-benzyl}-2-ethyl-5,7-dimethyl-3H-imidazo[4,5-b]pyridine dihydrochloride] | 60 nM
14 | CCc1nc2c(C)cc(C)nc2n1Cc1ccc(/C=C/CN2CCN(CC(C)C)CC2)cc1 [Example 50, 2-Ethyl-3-{4-[(E)-3-(4-isobutyl-piperazin-1-yl)-propenyl]-benzyl}-5,7-dimethyl-3H-imidazo[4,5-b]pyridine dihydrochloride] | 463 nM
15 | CCCc1nc2c(C)cc(C)nc2n1Cc1ccc(/C=C/CN2CCC(N3CCCCC3)CC2)cc1 [Example 82, 1′-{(E)-3-[4-(5,7-Dimethyl-2-propyl-imidazo[4,5-b]pyridin-3-ylmethyl)-phenyl]-allyl}-[1,4′]bipiperidine dihydrochloride] | 455 nM
16 | CCc1nc2c(C)cc(C)nc2n1Cc1ccc(/C=C/CN2CCOC(CNC(C)C)C2)cc1 (stereo not drawn) [Example 79, (4-{(E)-3-[4-(2-Ethyl-5,7-dimethyl-imidazo[4,5-b]pyridin-3-ylmethyl)-phenyl]-allyl}-morpholin-2-ylmethyl)-isopropyl-amine] | 194 nM
17 | CCc1nc2c(C)cc(C)nc2n1Cc1ccc(CCCN2CCN(CCOC)CC2)cc1 [Example 20, 2-Ethyl-3-(4-{3-[4-(2-methoxy-ethyl)-piperazin-1-yl]-propyl}-benzyl)-5,7-dimethyl-3H-imidazo[4,5-b]pyridine dihydrochloride] | 953 nM
18 | CCc1nc2c(C)cc(C)nc2n1Cc1ccc(/C=C/CN2CCC(c3c[nH]c4ccccc34)CC2)cc1 [Example 40, 2-Ethyl-3-(4-{(E)-3-[4-(1H-indol-3-yl)-piperidin-1-yl]-propenyl}-benzyl)-5,7-dimethyl-3H-imidazo[4,5-b]pyridine hydrochloride] | 704 nM
19 | CCc1nc2c(C)cc(C)nc2n1Cc1ccc(/C=C/CN2CCN(C(CC)CC)CC2)cc1 [Example 53, 2-Ethyl-3-(4-{(E)-3-[4-(1-ethyl-propyl)-piperazin-1-yl]-propenyl}-benzyl)-5,7-dimethyl-3H-imidazo[4,5-b]pyridine dihydrochloride] | 194 nM
20 | CCc1nc2c(C)cc(C)nc2n1Cc1ccc(CCCN2CCN(C3CCCC3)CC2)cc1 [Example 18, 3-{4-[3-(4-Cyclopentyl-piperazin-1-yl)-propyl]-benzyl}-2-ethyl-5,7-dimethyl-3H-imidazo[4,5-b]pyridine] | 186 nM
21 | CCCCc1nc2c(C)cc(C)nc2n1Cc1ccc(/C=C/CN2CCN(C(C)C)CC2)cc1 [Example 85, 2-Butyl-3-{4-[(E)-3-(4-isopropyl-piperazin-1-yl)-propenyl]-benzyl}-5,7-dimethyl-3H-imidazo[4,5-b]pyridine dihydrochloride] | 834 nM
22 | CCc1nc2c(C)cc(C)nc2n1Cc1ccc(/C=C/C(=O)N2CCC(N3CCCCC3)CC2)cc1 [Example 97, (E)-1-[1,4′]Bipiperidinyl-1′-yl-3-[4-(2-ethyl-5,7-dimethyl-imidazo[4,5-b]pyridin-3-ylmethyl)-phenyl]-propenone hydrochloride] | 445 nM
23 | CCCCN1CCN(C/C=C/c2ccc(Cn3c(CC)nc4c(C)cc(C)nc43)cc2)CC1 [Example 48, 3-{4-[(E)-3-(4-Butyl-piperazin-1-yl)-propenyl]-benzyl}-2-ethyl-5,7-dimethyl-3H-imidazo[4,5-b]pyridine dihydrochloride] | 194 nM
24 | CCc1nc2c(C)cc(C)nc2n1Cc1ccc(/C=C/CN2CCN(CCC(C)C)CC2)cc1 [Example 52, 2-Ethyl-5,7-dimethyl-3-(4-{(E)-3-[4-(3-methyl-butyl)-piperazin-1-yl]-propenyl}-benzyl)-3H-imidazo[4,5-b]pyridine dihydrochloride] | 140 nM
25 | CCc1nc2c(C)cc(C)nc2n1Cc1ccc(CCCN2CCN(CCC(C)C)CC2)cc1 [Example 16, 2-Ethyl-5,7-dimethyl-3-(4-{3-[4-(3-methyl-butyl)-piperazin-1-yl]-propyl}-benzyl)-3H-imidazo[4,5-b]pyridine] | 283 nM
26 | CCc1nc2c(C)cc(C)nc2n1Cc1ccc(CCCN2CCN(C(C)(C)C)CC2)cc1 [Example 12, 3-{4-[3-(4-tert-Butyl-piperazin-1-yl)-propyl]-benzyl}-2-ethyl-5,7-dimethyl-3H-imidazo[4,5-b]pyridine] | 53 nM
27 | Cc1cc(C)c2nc(C(F)(F)F)n(Cc3ccc(/C=C/CN4CCC(N5CCCCC5)CC4)cc3)c2n1 [Example 87, 1′-{(E)-3-[4-(5,7-Dimethyl-2-trifluoromethyl-imidazo[4,5-b]pyridin-3-ylmethyl)-phenyl]-allyl}-[1,4′]bipiperidinyl dihydrochloride] | 296 nM
28 | CCc1nc2c(C)cc(C)nc2n1Cc1ccc(/C=C/CN2CCN3CCCC3C2C)cc1 (stereo not drawn) [Example 73, 2-Ethyl-5,7-dimethyl-3-{4-[(E)-3-(1-methyl-hexahydro-pyrrolo[1,2-a]pyrazin-2-yl)-propenyl]-benzyl}-3H-imidazo[4,5-b]pyridine dihydrochloride] | 887 nM
29 | CCc1nc2c(C)cc(C)nc2n1Cc1ccc(/C=C/CCN2CCC(N3CCOCC3)CC2)cc1 [Example 108, 2-Ethyl-5,7-dimethyl-3-{4-[(E)-4-(4-morpholin-4-yl-piperidin-1-yl)-but-1-enyl]-benzyl}-3H-imidazo[4,5-b]pyridine dihydrochloride] | 447 nM
30 | CCc1nc2c(C)cc(C)nc2n1Cc1ccc(/C=C/CN2[C@@H]3CC[C@H]2CC(n2cnc4ccccc42)C3)cc1 (stereo partly drawn) [Example 41, 3-{4-[(E)-3-((1R,5S)-3-Benzoimidazol-1-yl-8-aza-bicyclo[3.2.1]oct-8-yl)-propenyl]-benzyl}-2-ethyl-5,7-dimethyl-3H-imidazo[4,5-b]pyridine hydrochloride] | 799 nM
